# Results as given in the supplement of paper PMC10307832.
# Experiments:
# Test in all cases: relative viability (nuclei count vs DMSO), 5 days (fraction); higher = more cells survive
# 201T = system: 201T
# In short: (§1)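 Relative viability was taken as the ratio of nuclei in treated wells to nuclei in vehicle wells. Lung cancer cell lines in 1536-well plates received compounds by pin tool one day after seeding, either one drug alone or a fixed anchor-drug dose plus five library-drug doses (not always all listed) in √10 steps. Nuclei were counted on 4× images after 5 days of treatment, and values are medians of duplicate plates.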
# A-427 = system: A-427
# In short: as §1
# BEN = system: BEN
# In short: as §1
# COR-L23 = system: COR-L23
# In short: as §1
# EKVX = system: EKVX
# In short: as §1
# EMC-BAC-2 = system: EMC-BAC-2
# In short: as §1
# EPLC-272H = system: EPLC-272H
# In short: as §1
# HCC-44 = system: HCC-44
# In short: as §1
# HCC-827 = system: HCC-827
# In short: as §1
# LCLC-103H = system: LCLC-103H
# In short: as §1
# LK-2 = system: LK-2
# In short: as §1
# LXF-289 = system: LXF-289
# In short: as §1
# NCI-H1650 = system: NCI-H1650
# In short: as §1
# NCI-H1651 = system: NCI-H1651
# In short: as §1
# NCI-H1915 = system: NCI-H1915
# In short: as §1
# NCI-H2087 = system: NCI-H2087
# In short: as §1
# NCI-H2126 = system: NCI-H2126
# In short: as §1
# NCI-H2347 = system: NCI-H2347
# In short: as §1
# NCI-H358 = system: NCI-H358
# In short: as §1
# NCI-H441 = system: NCI-H441
# In short: as §1
# NCI-H460 = system: NCI-H460
# In short: as §1
# NCI-H596 = system: NCI-H596
# In short: as §1
# SW 1573 = system: SW 1573
# In short: as §1
structure (smiles),measurement,setting,value
CCCCCCCCCCCC1=C(O)C(=O)C=C(O)C1=O [Embelin] + C[C@@H](Oc1cc(-c2cnn(C3CCNCC3)c2)cnc1N)c1c(Cl)ccc(F)c1Cl [Crizotinib] (partner 1 µM),relative viability,201T; first compound 0.08 µM,1.02
same,relative viability,201T; first compound 0.8 µM,1.07
same,relative viability,201T; first compound 2.53 µM,1.04
same,relative viability,201T; first compound 8 µM,1.06
same,relative viability,A-427; first compound 0.08 µM,0.905
same,relative viability,A-427; first compound 0.8 µM,0.862
same,relative viability,A-427; first compound 2.53 µM,1.03
same,relative viability,A-427; first compound 8 µM,0.881
same,relative viability,BEN; first compound 0.08 µM,0.845
same,relative viability,BEN; first compound 0.8 µM,1.18
same,relative viability,BEN; first compound 2.53 µM,1.17
same,relative viability,BEN; first compound 8 µM,0.849
same,relative viability,COR-L23; first compound 0.08 µM,0.691
same,relative viability,COR-L23; first compound 0.8 µM,0.762
same,relative viability,COR-L23; first compound 2.53 µM,0.701
same,relative viability,COR-L23; first compound 8 µM,0.745
same,relative viability,EKVX; first compound 0.08 µM,0.78
same,relative viability,EKVX; first compound 0.8 µM,1.05
same,relative viability,EKVX; first compound 2.53 µM,1.07
same,relative viability,EKVX; first compound 8 µM,1.07
same,relative viability,EMC-BAC-2; first compound 0.08 µM,0.747
same,relative viability,EMC-BAC-2; first compound 0.8 µM,0.831
same,relative viability,EMC-BAC-2; first compound 2.53 µM,0.87
same,relative viability,EMC-BAC-2; first compound 8 µM,0.764
same,relative viability,EPLC-272H; first compound 0.08 µM,0.802
same,relative viability,EPLC-272H; first compound 0.8 µM,1.08
same,relative viability,EPLC-272H; first compound 2.53 µM,1.4
same,relative viability,EPLC-272H; first compound 8 µM,0.765
same,relative viability,HCC-44; first compound 0.08 µM,0.771
same,relative viability,HCC-44; first compound 0.8 µM,0.803
same,relative viability,HCC-44; first compound 2.53 µM,0.826
same,relative viability,HCC-44; first compound 8 µM,0.829
same,relative viability,HCC-827; first compound 0.08 µM,0.98
same,relative viability,HCC-827; first compound 0.8 µM,0.931
same,relative viability,HCC-827; first compound 2.53 µM,0.976
same,relative viability,HCC-827; first compound 8 µM,0.977
same,relative viability,LCLC-103H; first compound 0.08 µM,1.06
same,relative viability,LCLC-103H; first compound 0.8 µM,1.01
same,relative viability,LCLC-103H; first compound 2.53 µM,1.08
same,relative viability,LCLC-103H; first compound 8 µM,0.959
same,relative viability,LK-2; first compound 0.08 µM,0.227
same,relative viability,LK-2; first compound 0.8 µM,0.316
same,relative viability,LK-2; first compound 2.53 µM,0.229
same,relative viability,LK-2; first compound 8 µM,0.208
same,relative viability,LXF-289; first compound 0.08 µM,0.835
same,relative viability,LXF-289; first compound 0.8 µM,0.818
same,relative viability,LXF-289; first compound 2.53 µM,0.884
same,relative viability,LXF-289; first compound 8 µM,0.896
same,relative viability,NCI-H1650; first compound 0.08 µM,0.954
same,relative viability,NCI-H1650; first compound 0.8 µM,1.04
same,relative viability,NCI-H1650; first compound 2.53 µM,0.981
same,relative viability,NCI-H1650; first compound 8 µM,1.16
same,relative viability,NCI-H1651; first compound 0.08 µM,0.855
same,relative viability,NCI-H1651; first compound 0.8 µM,0.843
same,relative viability,NCI-H1651; first compound 2.53 µM,0.988
same,relative viability,NCI-H1651; first compound 8 µM,0.837
same,relative viability,NCI-H1915; first compound 0.08 µM,0.988
same,relative viability,NCI-H1915; first compound 0.8 µM,1.03
same,relative viability,NCI-H1915; first compound 2.53 µM,0.993
same,relative viability,NCI-H1915; first compound 8 µM,0.97
same,relative viability,NCI-H2087; first compound 0.08 µM,0.886
same,relative viability,NCI-H2087; first compound 0.8 µM,0.899
same,relative viability,NCI-H2087; first compound 2.53 µM,0.766
same,relative viability,NCI-H2087; first compound 8 µM,0.937
same,relative viability,NCI-H2126; first compound 0.08 µM,1.04
same,relative viability,NCI-H2126; first compound 0.8 µM,1.05
same,relative viability,NCI-H2126; first compound 2.53 µM,1.19
same,relative viability,NCI-H2126; first compound 8 µM,1.04
same,relative viability,NCI-H2347; first compound 0.08 µM,0.784
same,relative viability,NCI-H2347; first compound 0.8 µM,0.868
same,relative viability,NCI-H2347; first compound 2.53 µM,0.778
same,relative viability,NCI-H2347; first compound 8 µM,0.622
same,relative viability,NCI-H358; first compound 0.08 µM,0.635
same,relative viability,NCI-H358; first compound 0.8 µM,0.851
same,relative viability,NCI-H358; first compound 2.53 µM,0.547
same,relative viability,NCI-H358; first compound 8 µM,0.791
same,relative viability,NCI-H441; first compound 0.08 µM,0.749
same,relative viability,NCI-H441; first compound 0.8 µM,0.971
same,relative viability,NCI-H441; first compound 2.53 µM,0.788
same,relative viability,NCI-H441; first compound 8 µM,0.901
same,relative viability,NCI-H460; first compound 0.08 µM,0.818
same,relative viability,NCI-H460; first compound 0.8 µM,1.04
same,relative viability,NCI-H460; first compound 2.53 µM,1.02
same,relative viability,NCI-H460; first compound 8 µM,0.876
same,relative viability,NCI-H596; first compound 0.08 µM,1.06
same,relative viability,NCI-H596; first compound 0.8 µM,1.62
same,relative viability,NCI-H596; first compound 2.53 µM,1.2
same,relative viability,NCI-H596; first compound 8 µM,1.01
same,relative viability,SW 1573; first compound 0.08 µM,0.808
same,relative viability,SW 1573; first compound 0.8 µM,0.977
same,relative viability,SW 1573; first compound 2.53 µM,0.84
same,relative viability,SW 1573; first compound 8 µM,0.887
